According to US7186741B2, “Neurotensin active 2,3,diaryl-pyrazolidine derivatives” (Solvay Pharmaceuticals B.V., priority 2002, dated 2007):

Test system: enzymes which degrade the neuropeptide neurotensin
Experiment: pharmacological activity of stereoisomers/racemates (test not specified)
Type: biochemical
Conditions: result in words; comparison of enantiomers or diastereomeric racemates
Source text: The invention relates to a group of new 2,3-diaryl-pyrazolidine derivatives having inhibiting activity on enzymes which degrade the neuropeptide neurotensin.
The compounds according to the invention are active in inhibiting the abovementioned enzymes in the range of 5.0–8.0 (plC50 values), when tested according to the methods described in Biochem. J. 280, 421–426, and Eur. J. Biochem. 202, 269–276.

For `O=C(NCC(=O)N1CCC(c2ccccc2Cl)N1c1ccccc1Cl)NC1C2CC3CC(C2)CC1C3` (stereo not shown) [Compound A12], the “pharmacological activity (active / inactive racemate, eutomer)” value was “eutomer”.
